Results from article PMC8201324, “Pyrazoles and Pyrazolines as Anti-Inflammatory Agents” (Molecules, 2021).
Marks after values point to notes of the source that are not given here.

Tests used:
[1] = test system: acetic acid-induced writhing; assay: Anti-nociception writhing test (acetic acid); assay type: in vivo, Fisher 344 rats; conditions: 0.0057 mmol/kg body weight i.p., 0.6% acetic acid after 30 min
Source text: The acetic acid-induced writhing test is a quick, simple and reproducible method, despite the fact that it lacks specialization. […] The animals (Fisher 344 rats), were housed under standard conditions, and received a diet of commercial food pellets and water ad libitum during the maintenance, but were entirely fasted during the experiment period. Both sexes were used, while pregnant females were excluded. Each group was composed of 6–15 animals. Our studies were in accordance with recognized guidelines on animal experimentation (guidelines for the care and use of laboratory animals published by the Greek Government 160/1991, based on EU regulations 86/609). Rats were kept in the Centre of the School of Veterinary Medicine (EL54 BIO42), Aristotle University of Thessaloniki, which is registered by the official state veterinary authorities (presidential degree 56/2013, in harmony with the European Directive 2010/63/EEC). The experimental protocols were approved by the Animal Ethics Committee of the Prefecture of Central Macedonia. For the study of the analgesic activity of the tested compounds, pain is provoked with acetic acid. Animals were divided in three five-membered groups, according to our reported method. After treatment with the tested compounds (0.0057 mmol/kg body weight; intraperitoneally) in the first group, the second group was used as a positive control (aspirin; 0.0057 mmol/kg body weight i.p.) and the third group served as the control in which saline was administered (negative control). After 30 min, 0.6% acetic acid (1 mL/kg body weight) was injected i.p. The number of writhes was recorded for each animal every 5 min during a subsequent 30 min period (Table 6).

[2] = test system: carrageenin-induced rat paw edema; assay: Inhibition of the carrageenin-induced rat paw edema; assay type: in vivo, Fisher 344 rats; conditions: 0.0057 mmol/Kg body weight, intraperitoneally, 3.5 h after carrageenin
Source text: The carrageenin-induced rat paw edema assay was used, as a model of acute inflammation. Inflammation induced by carrageenan is acute, non-immune, well-researched, and highly reproducible, and is described as a biphasic event. Cardinal signs of inflammation—edema, hyperalgesia, and erythema, are developed immediately following subcutaneous injection, resulting from the action of pro-inflammatory agents: bradykinin, histamine, tachykinins, complement reactive oxygen and nitrogen species. It is known that NSAIDs act during the second phase of prostaglandin release, presenting weak activity in the first phase of histamine and serotonin release.
(§1) The animals (Fisher 344 rats), were housed under standard conditions, and received a diet of commercial food pellets and water ad libitum during the maintenance, but were entirely fasted during the experiment period. Both sexes were used, while pregnant females were excluded. Each group was composed of 6–15 animals. Our studies were in accordance with recognized guidelines on animal experimentation (guidelines for the care and use of laboratory animals published by the Greek Government 160/1991, based on EU regulations 86/609). Rats were kept in the Centre of the School of Veterinary Medicine (EL54 BIO42), Aristotle University of Thessaloniki, which is registered by the official state veterinary authorities (presidential degree 56/2013, in harmony with the European Directive 2010/63/EEC). The experimental protocols were approved by the Animal Ethics Committee of the Prefecture of Central Macedonia.
Carrageenin in water as an intradermal injection of 0.1 mL 2% was used for the induction of the edema in the right hind paw of the rats, according to the previously reported method. Animals were divided in five-membered groups and the tested compounds were suspended in water (0.0057 mmol/kg body weight), with a few drops of Tween 80, ground in a mortar before administered intraperitoneally simultaneously. The rats were euthanized 3.5 h after carrageenin injection. Comparison of the change in paw weight with that in control animals (treated with water) was expressed as a percent inhibition of the oedema CPE% values using indomethacin (IMA) as a reference compound. Values CPE% are the mean from two different experiments with a standard error of the mean less than 10% (Table 5). Student’s T test was applied.

[3] = test system: adjuvant-induced disease (AID); assay: Adjuvant-induced disease (AID); assay type: in vivo, Fisher 344 rats; conditions: AID rats
Procedure: Adjuvant-induced disease (AID) is a good experimental model for rheumatoid arthritis, and is often used in testing agents for anti-inflammatory activity. The compound was administered intraperitoneally on the 1st day, i.e., the day of the administration of Freund’s adjuvant (FA), and once every other day for the following 24 days. Adjuvant arthritis was developed about 14 days post-FA administration. […] The effect of the tested compound on inflammation is shown in Table 7 and the time course of adjuvant arthritis development expressed as arthritic score is shown in Figure 2. In the same experimental model, Indomethacin (IMA) was used as a reference compound.
as §1
Rats were divided into four groups (five-membered groups of animals were used): groups one, two and three were injected intradermally with 0.1 mL Freund’s adjuvant (FA) into the base of the tails of the animals; group three was the FA control rats; group four was injected with saline, used as an absolute control. Compound 2d (group 1) and indomethacin (group 2) were injected i.p. once every other day for the following 24 days in a dose of 0.00057 mmol/mL/kg body weight (Table 7). Adjuvant arthritis was developed circa 14 days post-FA administration. Arthritic score was measured every 2 days from the commencement (14th day) day. Arthritic score was assessed on the 24th day. For quantification of arthritis (arthritic score); a single point was assigned for each wrist or ankle area and an additional point was given for each involved phalangeal joint, up to a maximum of five points per extremity.
On the 24th day and at least 12 h after the last injection, animals were administered zoxazolamine i.p. […], as an aqueous suspension with a few drops of Tween 80, and the duration of the paralysis were assessed (Table 7) (Figure 2). The experiment was conducted in duplicate.

[4] = Reducing activity of the stable radical DPPH; assay type: biochemical
Procedure: The novel derivatives were studied for their interaction with the stable 2,2-diphenyl-1-picrylhydrazyl free radical (DPPH) at concentrations 50 µM, 100 µM, 200 µM and after 20 and 60 min (Table 3). This assay is based on the reduction of the DPPH by transferring an electron from the antioxidant. […] However, it seems that the interaction is dependent on the concentration and on the reaction time. From this point of view, it can be concluded that the acetyl pyrazolyl derivatives 2c and 2f seem to present the highest scavenging activities. An increase in concentration favors the activity. […] As for compounds 2a, 2b, 2c and 2f, activity seems to be time dependent at 200 µM. […] The presence of a chlorine group in 2e pyrazoline leads to an activity increase (compared to 2d) in concentration 200 µM. The acetyl derivative 2f presents better activity than 2b at 200 µM.
(§2) A stock solution (1% DMSO in the appropriate buffer with the tested compound diluted under sonication) was prepared for the in vitro assays from which several dilutions were made with the appropriate buffer. The in vitro experiments were performed at least in triplicate, and the standard deviation of absorbance was less than 10% of the mean.
A stock solution (10 mM) of the novel derivatives in DMSO was prepared and an equal volume of it was added to a solution of DPPH in absolute ethanol to reach final concentrations 50, 100 µM and 200 µM. The absorbance was recorded at 517 nm, after 20 and 60 min at room temperature (Table 3).

[5] = Inhibition of linoleic acid lipid peroxidation (AAPH); assay type: biochemical
Procedure: For the lipid peroxidation study, 2,2′-azobis(2-amidinopropane) hydrochloride (AAPH) was used for the generation of peroxyl radicals. The generation of the conjugated diene hydroperoxide derived from the oxidation of sodium linoleate in an aqueous solution was recorded at 234 nm. The compounds presented high anti-lipid peroxidation activity (78–100%) (Table 4). Pyrazolines 2a and 2b present lower anti-lipid peroxidation activity (89% and 78% respectively).
as §2
AAPH was used as free radical initiator of alkylperoxyl radicals. The ability of the compounds to prevent the oxidation of linoleic acid sodium salt from alkylperoxyl radicals was recorded at 234 nm. Trolox was used as reference (93%) (Table 4).

[6] = ABTS+ decolorization assay for antioxidant activity; assay type: biochemical
Source text: Pyrazolines 2d and 2e which are the most lipophilic compounds, showing antioxidant activity using the ABTS radical cation (ABTS^•+) generated through potassium persulfate by oxidation with no participation of an intermediary radical. This reduction is completed by adding electron-donating antioxidants. It seems that lipophilicity influences the activity, since both present high lipophilicity values.
as §2
The ABTS radical cation (ABTS^+•) was generated by mixing ABTS stock solution in water (7 mM) with potassium persulfate (2.45 mM) and left in the dark at room temperature for 12–16 h before use. The results are recorded immediately after the mixing solutions at 734 nm. The results were compared to the appropriate standard inhibitor Trolox (Table 4).

[7] = 0.00057 mmol/mL/kg i.p. every other day for 24 days

CC(=O)Oc1ccccc1C(=O)O [Aspirin, acetylsalicylic acid, reference compound]
Writhing Inhibition (%) [1]: 77 ** %

COc1ccc2c(c1)c(CC(=O)O)c(C)n2C(=O)c1ccc(Cl)cc1 [Indomethacin, reference compound]
CPE % (reduction in the rat paw edema induced by carrageenin) [2]: 47 ** %
Percent change in body weight (g ± SD) [3, 7]: 8.3 ± 0.2 g
Percent change in liver weight (g ± SD) [3, 7]: 6.3 ± 0.4 g
Zoxazolamine paralysis (minutes ± SD) ([3]; 24th day, zoxazolamine i.p.): 217 ± 17 min

CC(Cc1ccc(O)c(O)c1)C(C)Cc1ccc(O)c(O)c1 (stereo not drawn) [NDGA, Nordihydroguaretic acid, reference compound]
RA% 50 µM 20 min ([4]; 50 µM, 20 min): 81%
RA% 50 µM 60 min ([4]; 50 µM, 60 min): 83%
RA% 100 µM 20 min ([4]; 100 µM, 20 min): 87%
RA% 200 µM 20 min ([4]; 200 µM, 20 min): 94%
RA% 200 µM 60 min ([4]; 200 µM, 60 min): 96%

Cc1c(C)c2c(c(C)c1O)CCC(C)(C(=O)O)O2 (stereo not drawn) [Trolox, 6-Hydroxy-2,5,7,8-tetramethyl-chroman-2-carboxylic acid, reference compound]
AAPH% 100 µM (anti-lipid peroxidation) [5]: 93%
ABTS^+ % 100 µM (decolorization activity) [6]: 91%
